In BindingDB's records for doi:10.1016/j.bmcl.2007.05.021 (Yale University, 2007):

Biological target: Transcription factor Jun (Homo sapiens, UniProt P05412)
Experiment: Inhibition of AP1-mediated gene transcription in HepG2 cells by luciferase reporter gene assay

Sequence of Transcription factor Jun (P05412 whole entry): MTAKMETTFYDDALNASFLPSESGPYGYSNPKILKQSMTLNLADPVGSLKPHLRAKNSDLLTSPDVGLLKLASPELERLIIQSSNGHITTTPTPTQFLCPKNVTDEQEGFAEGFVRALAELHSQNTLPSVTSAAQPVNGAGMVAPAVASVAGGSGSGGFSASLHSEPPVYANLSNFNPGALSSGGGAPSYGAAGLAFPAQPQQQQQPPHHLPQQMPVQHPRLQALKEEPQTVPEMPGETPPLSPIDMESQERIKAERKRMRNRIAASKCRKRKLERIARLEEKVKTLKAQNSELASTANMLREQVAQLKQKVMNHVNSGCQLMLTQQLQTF

SMILES | IC50
COc1cc2c3c(c4cc(OC)c(OC)cc4c2cc1OC)[C@@H](O)[C@@H]1CCCN1C3 [(12aS,13R)-2,3,6,7-tetramethoxy-9,10,11,12,12a,13-hexahydro-9a-aza-cyclopenta[b]triphenylen-13-ol] | > 300 nM
COc1cc2c3c(c4cc(OC)c(OC)cc4c2cc1O)CN1CCC[C@H]1[C@H]3O [(12aS,13S)-2,6,7-trimethoxy-9,10,11,12,12a,13-hexahydro-9a-aza-cyclopenta[b]triphenylene-3,13-diol] | > 1000 nM
COc1cc2c(cc1OC)-c1cc(OC)c(OC)cc1C1CN3CCC[C@H]3C=C21 (stereo partly drawn) [(S)-2,3,6,7-tetramethoxy-8b,9,10,11,12,12a-hexahydro-9a-aza-cyclopenta[b]triphenylene] | > 300 nM
COc1ccc2c3c(c4cc(OC)c(O)cc4c2c1)CN1CCC[C@@H]1C3 [[(R)-(+)-deoxytylophorinidine] | 68 nM
COc1ccc2c3c(c4cc(OC)c(O)cc4c2c1)C[N+]1([O-])CCC[C@H]1[C@H]3O (stereo partly drawn) [tylophoridicine C] | > 3000 nM
COc1ccc2c3c(c4cc(OC)c(OC)cc4c2c1)C[N+]1([O-])CCC[C@H]1[C@@H]3O (stereo partly drawn) [tylophoridicine F] | > 3000 nM
COc1ccc2c3c(c4cc(OC)c(O)cc4c2c1)CN1CCC[C@H]1[C@H]3O [tylophorinidine] | 65 nM
COc1ccc2c3c(c4cc(OC)c(OC)cc4c2c1)CN1CCC[C@H]1[C@@H]3O [tylophorinine] | 110 nM
